Read-outs that look alike come from different tables or passages of the source. Marks after values point to notes of the source that are not given here.
Legend:
GluN1/GluN2A-L611Q [1] = target: T1, GluN1/GluN2A-L611Q (Homo sapiens, UniProt Q05586+Q12879, L611Q); experiment: Current-voltage curves; settings: 2A-L611Q
[2] = target: GluN2B-V620M-containing NMDARs (Homo sapiens, UniProt Q05586+Q13224, V620M); experiment: TEVC current recordings from Xenopus oocytes, channel blocker inhibition; type: cell-based; settings: for % inhibition: 2B-V620M, 100 μM blocker, −40 mV; for IC50: IC50, 2B-V620M, holding −40 mV
[3] = target: GluN2B-N616K-containing NMDARs (Homo sapiens, UniProt Q05586+Q13224, N616K); experiment: as above; type: cell-based; settings: for % inhibition: 2B-N616K, 100 μM blocker, −40 mV; for IC50: IC50, 2B-N616K, holding −40 mV
[4] = target: GluN2A-N615K-containing NMDARs (Homo sapiens, UniProt Q05586+Q12879, N615K); experiment: as above; type: cell-based; settings: for % inhibition: 2A-N615K, 100 μM blocker, −40 mV; for IC50: IC50, 2A-N615K, holding −40 mV
GluN1/GluN2A-L611Q [5] = target: T1, GluN1/GluN2A-L611Q; experiment: as above; type: cell-based; settings: for % inhibition: 2A-L611Q, 100 μM blocker, −40 mV; for IC50: IC50, 2A-L611Q, holding −40 mV
[6] = target: GluN2A-N614S-containing NMDARs (Homo sapiens, UniProt Q05586+Q12879, N614S); experiment: as above; type: cell-based; settings: for % inhibition: 2A-N614S, 100 μM blocker, −40 mV; for IC50: IC50, 2A-N614S, holding −40 mV
WT GluN1/GluN2B = WT GluN1/GluN2B (Homo sapiens, UniProt Q05586+Q13224); experiment: as above; type: cell-based; settings: for IC50: IC50, WT GluN1/WT 2B, holding −40 mV; for % inhibition: WT GluN1/WT 2B, 100 μM blocker, −40 mV
[7] = target: GluN2B-G611V-containing NMDARs (Homo sapiens, UniProt Q05586+Q13224, G611V); experiment: as above; type: cell-based; settings: for % inhibition: 2B-G611V, 100 μM blocker, −40 mV; for IC50: IC50, 2B-G611V, holding −40 mV
WT GluN1/GluN2A = WT GluN1/GluN2A (Homo sapiens, UniProt Q05586+Q12879); experiment: as above; type: cell-based; settings: for IC50: IC50, WT GluN1/WT 2A, holding −40 mV; for % inhibition: WT GluN1/WT 2A, 100 μM blocker, −40 mV
GluN1/GluN2B-N615I = GluN1/GluN2B-N615I (Homo sapiens, UniProt Q05586+Q13224, N615I); experiment: as above; type: cell-based; settings: for % inhibition: 2B-N615I, 100 μM blocker, −40 mV; for IC50: IC50, 2B-N615I, holding −40 mV
[8] = target: GluN2B-W607C-containing NMDARs (Homo sapiens, UniProt Q05586+Q13224, W607C); experiment: as above; type: cell-based; settings: for % inhibition: 2B-W607C, 100 μM blocker, −40 mV; for IC50: IC50, 2B-W607C, holding −40 mV
[9] = target: GluN2B-V618G-containing NMDARs (Homo sapiens, UniProt Q05586+Q13224, V618G); experiment: as above; type: cell-based; settings: for % inhibition: 2B-V618G, 100 μM blocker, −40 mV; for IC50: IC50, 2B-V618G, holding −40 mV
GluN1-G620R/GluN2A = GluN1-G620R/GluN2A (Homo sapiens, UniProt Q05586+Q12879, G620R); experiment: as above; type: cell-based; settings: for % inhibition: 1-G620R/2A, 100 μM blocker, −40 mV; for IC50: IC50, 1-G620R/2A, holding −40 mV
GluN1/GluN2B-N615K = GluN1/GluN2B-N615K (Homo sapiens, UniProt Q05586+Q13224, N615K); experiment: as above; type: cell-based; settings: for % inhibition: 100 μM blocker, −40 mV

CNC1(c2ccccc2Cl)CCCCC1=O (stereo not shown) [ketamine]
z δ (apparent, combined block) (GluN1/GluN2A-L611Q [1]; 1 mM Mg^2+ + 0.3 μM ketamine): 1.14 | z δ (apparent, combined block) (GluN1/GluN2A-L611Q [1]; 1 mM Mg^2+ + 1.0 μM ketamine): 1.02 | z δ (apparent, combined block) (GluN1/GluN2A-L611Q [1]; 1 mM Mg^2+ + 3.0 μM ketamine): 1.01 | z δ (apparent, combined block) (GluN1/GluN2A-L611Q [1]; 1 mM Mg^2+ + 10 μM ketamine): 0.84 | z δ (apparent, combined block) (GluN1/GluN2A-L611Q [1]; 1 mM Mg^2+ + 30 μM ketamine, zδ was fixed to 0.80 for this condition): 0.80 ^* | z δ (apparent, combined block) (GluN1/GluN2A-L611Q [1]; 1 mM Mg^2+ + 100 μM ketamine): 0.80 | % inhibition ([2]; w/ 1 mM Mg^2+): 91 ± 2.8% (8) | % inhibition ([2]; w/o Mg^2+): 93 ± 1.0% (10) | reduced potency in 1 mM Mg^2+ vs absence of Mg^2+ ([2]; GluN2B-V620M): 2.1 fold | IC50 ([2]; w/ 1 mM Mg^2+): 7 µM | IC50 ([2]; w/o Mg^2+): 3.4 µM | % inhibition ([3]; w/ 1 mM Mg^2+): 93 ± 1.3% (13)^¥ | % inhibition ([3]; w/o Mg^2+): 91 ± 2.7% (8) | enhanced potency in comparison to WT NMDARs ([3]; GluN2B-N616K, absence of Mg^2+): 1.8 fold | IC50 ([3]; w/ 1 mM Mg^2+): 2.5 µM | IC50 ([3]; w/o Mg^2+): 2.3 µM | % inhibition ([4]; w/ 1 mM Mg^2+): 92 ± 3.3% (7)^¥ | % inhibition ([4]; w/o Mg^2+): 93 ± 1.5% (18) | IC50 ([4]; w/ 1 mM Mg^2+): 1.6 µM | IC50 ([4]; w/o Mg^2+): 4.3 µM | increased potency in 1 mM Mg^2+ compared to the same variant in the absence of Mg^2+ ([4]; printed GluN2A-N616K): 2.7 fold | % inhibition (GluN1/GluN2A-L611Q [5]; w/ 1 mM Mg^2+): 93 ± 2.1% (10) ^*^¥ | % inhibition (GluN1/GluN2A-L611Q [5]; w/o Mg^2+): 87 ± 1.5% (17) | increased potency in 1 mM Mg^2+ compared to the same variant in the absence of Mg^2+ (GluN1/GluN2A-L611Q [5]; GluN2A-L611Q): 1.8 fold | IC50 (GluN1/GluN2A-L611Q [5]; w/ 1 mM Mg^2+): 4 µM | IC50 (GluN1/GluN2A-L611Q [5]; w/o Mg^2+): 7.2 µM | % inhibition ([6]; w/ 1 mM Mg^2+): 77 ± 4.1% (9) | % inhibition ([6]; w/o Mg^2+): 78 ± 3.0% (12)^¥ | reduced potency (less potent) vs WT ([6]; GluN2A-N614S, absence of Mg^2+): ~ 3 fold | IC50 ([6]; w/ 1 mM Mg^2+): 31 µM | IC50 ([6]; w/o Mg^2+): 29 µM | IC50 (WT GluN1/GluN2B; w/ 1 mM Mg^2+): 14 µM | IC50 (WT GluN1/GluN2B; w/o Mg^2+): 4.2 µM | % inhibition (WT GluN1/GluN2B; w/ 1 mM Mg^2+): 86 ± 1.0% (12) | % inhibition (WT GluN1/GluN2B; w/o Mg^2+): 95 ± 1.0% (13) | % inhibition ([7]; w/ 1 mM Mg^2+): 88 ± 1.6% (16) | % inhibition ([7]; w/o Mg^2+): 92 ± 2.6% (7) | reduced potency in 1 mM Mg^2+ vs absence of Mg^2+ ([7]; GluN2B-G611V): 2.6 fold | IC50 ([7]; w/ 1 mM Mg^2+): 8 µM | IC50 ([7]; w/o Mg^2+): 3.1 µM | IC50 (WT GluN1/GluN2A; w/ 1 mM Mg^2+): 17 µM | IC50 (WT GluN1/GluN2A; w/o Mg^2+): 5.5 µM | % inhibition (WT GluN1/GluN2A; w/ 1 mM Mg^2+): 79 ± 2.4% (24) | % inhibition (WT GluN1/GluN2A; w/o Mg^2+): 92 ± 1.1% (25) | % inhibition (GluN1/GluN2B-N615I; w/ 1 mM Mg^2+): 94 ± 1.8% (8)^¥ | % inhibition (GluN1/GluN2B-N615I; w/o Mg^2+): 89 ± 1.9 (10) % | enhanced potency in comparison to WT NMDARs (GluN1/GluN2B-N615I; GluN2B-N615I, absence of Mg^2+): 8.1 fold | IC50 (GluN1/GluN2B-N615I; w/ 1 mM Mg^2+): 0.76 µM | IC50 (GluN1/GluN2B-N615I; w/o Mg^2+): 0.51 µM | % inhibition ([8]; w/ 1 mM Mg^2+): 89 ± 2.8% (9) | % inhibition ([8]; w/o Mg^2+): 80 ± 3.6% (12)^¥ | reduced potency (less potent) vs WT ([8]; GluN2B-W607C, absence of Mg^2+): ~ 3 fold | IC50 ([8]; w/ 1 mM Mg^2+): 11 µM | IC50 ([8]; w/o Mg^2+): 16 µM | % inhibition ([9]; w/ 1 mM Mg^2+): 81 ± 2.1% (8) | % inhibition ([9]; w/o Mg^2+): 77 ± 3.0% (8)^¥ | reduced potency (less potent) vs WT ([9]; GluN2B-V618G, absence of Mg^2+): ~ 3 fold | IC50 ([9]; w/ 1 mM Mg^2+): 24 µM | IC50 ([9]; w/o Mg^2+): 18 µM | % inhibition (GluN1-G620R/GluN2A; w/ 1 mM Mg^2+): 97 ± 0.6 (7)^¥ % | % inhibition (GluN1-G620R/GluN2A; w/o Mg^2+): 95 ± 1.8 (12) % | increased potency in 1 mM Mg^2+ compared to the same variant in the absence of Mg^2+ (GluN1-G620R/GluN2A; GluN1-G620R): 2.5 fold | enhanced potency in comparison to WT NMDARs (GluN1-G620R/GluN2A; GluN1-G620R, absence of Mg^2+): 2.2 fold | IC50 (GluN1-G620R/GluN2A; w/ 1 mM Mg^2+): 1 µM | IC50 (GluN1-G620R/GluN2A; w/o Mg^2+): 2.5 µM | IC50 (GluN1/GluN2B-N615K): > 100 µM | % inhibition (GluN1/GluN2B-N615K; 2B-N615K, w/ 1 mM Mg^2+): 6.5 ± 1.5% (16) ^*^¥ | % inhibition (GluN1/GluN2B-N615K; 2B-N615K, w/o Mg^2+): 22 ± 3.8 (15)^¥ % | IC50 (GluN1/GluN2B-N615K; 2B-N615K, w/ 1 mM Mg^2+, holding −40 mV): > 100 µM | reduced potency compared to the WT receptors (GluN1/GluN2B-N615K; GluN2B-N615K, presence of 1 mM Mg^2+): over 5.9 fold

From publication PMC10902181 (Journal of neurochemistry, 2023)
